The values below come from paper PMC4780440 (Organic & biomolecular chemistry, 2015).

Entries after “also recorded” stand apart in the source; their conditions may differ. Square brackets hold non-standard residues; d marks the D form. Peptide text beside a SMILES is read from it. * marks the point of attachment. X1 = O=C(O)CN(CCN(CC(=O)O)CC(=O)O)CCN(CC(=O)O)CC(=O)NCCCOCCOCCOCCCNC(=O)COCC(=O)*; Nle = CCCC[C@H](N)C(=O)O

The target in assay [1] is T1, hMC4R (Homo sapiens, UniProt P32245). In words: Competitive binding assay against TRF probe 19, six-well plate protocol. To be noted: for inhibition of the binding and uptake of probe 19: over the concentration range tested (10 μM–0.10 nM), probe 19 20 nM; for Relative Potency: compared to the monovalent MSH(4) construct with the same scaffold core; for Ki lower than / inhibition higher than the corresponding monovalent molecule: divalent versus monovalent, against probe 19.
T1 sequence (P32245 whole entry): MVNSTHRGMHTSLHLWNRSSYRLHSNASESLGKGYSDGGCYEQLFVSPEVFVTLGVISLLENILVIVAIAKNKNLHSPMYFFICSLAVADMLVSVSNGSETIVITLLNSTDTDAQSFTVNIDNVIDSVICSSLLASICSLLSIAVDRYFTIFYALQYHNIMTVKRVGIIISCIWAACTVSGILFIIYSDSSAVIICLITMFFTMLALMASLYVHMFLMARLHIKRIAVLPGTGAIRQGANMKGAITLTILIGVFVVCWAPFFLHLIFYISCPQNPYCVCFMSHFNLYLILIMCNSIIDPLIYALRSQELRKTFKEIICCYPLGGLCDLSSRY

Assay [2] has as its target T1, hMC4R. To be noted: saturation binding assays using older protocol (96-well plates); ref [14]; cited from earlier work.

On to `NC(=O)[C@H](CO)NC(=O)CCCCCn1cc(COc2cc(OCc3cn(CCCCCC(=O)N[C@@H](CO)C(N)=O)nn3)cc(OCc3cn(CCCCCC(=O)N[C@@H](CO)C(N)=O)nn3)c2)nn1` [Compound 12a, 6,6′,6″-(4,4′,4″-((Benzene-1,3,5-triyltris(oxy))tris(methylene))tris(1H-1,2,3-triazole-4,1-diyl))tris(N-((S)-1-amino-3-hydroxy-1-oxopropan-2-yl)hexanamide)], for which the “inhibition of the binding and uptake of probe 19” value in assay [1] is reported as “did not inhibit; also recorded: not competitive inhibitors”.
As for `N=C(N)NCCC[C@H](NC(=O)[C@@H](Cc1ccccc1)NC(=O)[C@H](Cc1c[nH]cn1)NC(=O)CCCCCn1cc(COc2cc(OCc3cn(CCCCCC(=O)N[C@@H](CO)C(N)=O)nn3)cc(OCc3cn(CCCCCC(=O)N[C@@H](CO)C(N)=O)nn3)c2)nn1)C(=O)N[C@@H](Cc1c[nH]c2ccccc12)C(N)=O` [Compound 14a, 6,6′-(4,4′-(((5-((1-((6S,9R,12S)-12-((1H-Imidazol-4-yl)methyl)-1-amino-6-(((S)-1-amino-3-(1H-indol-3-yl)-1-oxopropan-2-yl)carbamoyl)-9-benzyl-1-imino-8,11,14-trioxo-2,7,10,13-tetraazanonadecan-19-yl)-1H-1,2,3-triazol-4-yl)methoxy)-1,3-phenylene)bis(oxy))bis(methylene))bis(1H-1,2,3-triazole-4,1-diyl))bis(N-(1-amino-3-hydroxy-1-oxopropan-2-yl)hexanamide)], in assay [1], the affinity corresponds to a Ki of 990 ± 140 nM and the “Relative Potency” value was 1.
Consider `N=C(N)NCCC[C@H](NC(=O)[C@@H](Cc1ccccc1)NC(=O)[C@H](Cc1c[nH]cn1)NC(=O)CCCCCn1cc(COc2cc(OCc3cn(CCCCCC(=O)N[C@@H](CO)C(N)=O)nn3)cc(OCc3cn(CCCCCC(=O)N[C@@H](Cc4c[nH]cn4)C(=O)N[C@H](Cc4ccccc4)C(=O)N[C@@H](CCCNC(=N)N)C(=O)N[C@@H](Cc4c[nH]c5ccccc45)C(N)=O)nn3)c2)nn1)C(=O)N[C@@H](Cc1c[nH]c2ccccc12)C(N)=O` [Compound 14b, 6,6′-(4,4′-(((5-((1-(6-((1-Amino-3-hydroxy-1-oxopropan-2-yl)amino)-6-oxohexyl)-1H-1,2,3-triazol-4-yl)methoxy)-1,3-phenylene)bis(oxy))bis(methylene))bis(1H-1,2,3-triazole-4,1-diyl))bis(N-((S)-1-(((R)-1-(((S)-1-(((S)-1-amino-3-(1H-indol-3-yl)-1-oxopropan-2-yl)amino)-5-guanidino-1-oxopentan-2-yl)amino)-1-oxo-3-phenylpropan-2-yl)amino)-3-(1H-imidazol-4-yl)-1-oxopropan-2-yl)hexanamide)], for which, in assay [1], the affinity corresponds to a Ki of 91 ± 13 nM, the “Relative Potency” value was determined as 11 and the “Ki lower than / inhibition higher than the corresponding monovalent molecule” value came out at 11 fold.
Take `NC(=O)[C@H](CO)NC(=O)CCCCCn1cc(CN(Cc2cn(CCCCCC(=O)N[C@@H](CO)C(N)=O)nn2)Cc2cn(CCCCCC(=O)N[C@@H](CO)C(N)=O)nn2)nn1` [Compound 15a, 6,6′,6″-(4,4′,4″-(Nitrilotris(methylene))tris(1H-1,2,3-triazole-4,1-diyl))tris(N-((S)-1-amino-3-hydroxy-1-oxopropan-2-yl)hexanamide)]: in assay [1], the “inhibition of the binding and uptake of probe 19” value is “did not inhibit; also recorded: not competitive inhibitors”.
Regarding `N=C(N)NCCC[C@H](NC(=O)[C@@H](Cc1ccccc1)NC(=O)[C@H](Cc1c[nH]cn1)NC(=O)CCCCCn1cc(CN(Cc2cn(CCCCCC(=O)N[C@@H](CO)C(N)=O)nn2)Cc2cn(CCCCCC(=O)N[C@@H](Cc3c[nH]cn3)C(=O)N[C@H](Cc3ccccc3)C(=O)N[C@@H](CCCNC(=N)N)C(=O)N[C@@H](Cc3c[nH]c4ccccc34)C(N)=O)nn2)nn1)C(=O)N[C@@H](Cc1c[nH]c2ccccc12)C(N)=O` [Compound 16b, 6,6′-(4,4′-((((1-(6-(((S)-1-Amino-3-hydroxy-1-oxopropan-2-yl)amino)-6-oxohexyl)-1H-1,2,3-triazol-4-yl)methyl)azanediyl)bis(methylene))bis(1H-1,2,3-triazole-4,1-diyl))bis(N-((S)-1-(((R)-1-(((S)-1-(((S)-1-amino-3-(1H-indol-3-yl)-1-oxopropan-2-yl)amino)-5-guanidino-1-oxopentan-2-yl)amino)-1-oxo-3-phenylpropan-2-yl)amino)-3-(1H-imidazol-4-yl)-1-oxopropan-2-yl)hexanamide)], in assay [1], the affinity corresponds to a Ki of 69 ± 12 nM, the “Relative Potency” value is recorded as 32 and the “Ki lower than / inhibition higher than the corresponding monovalent molecule” value is 32 fold.
Take `N=C(N)NCCC[C@H](NC(=O)[C@@H](Cc1ccccc1)NC(=O)[C@H](Cc1c[nH]cn1)NC(=O)CCCCCn1cc(CN(Cc2cn(CCCCCC(=O)N[C@@H](Cc3c[nH]cn3)C(=O)N[C@H](Cc3ccccc3)C(=O)N[C@@H](CCCNC(=N)N)C(=O)N[C@@H](Cc3c[nH]c4ccccc34)C(N)=O)nn2)Cc2cn(CCCCCC(=O)N[C@@H](Cc3c[nH]cn3)C(=O)N[C@H](Cc3ccccc3)C(=O)N[C@@H](CCCNC(=N)N)C(=O)N[C@@H](Cc3c[nH]c4ccccc34)C(N)=O)nn2)nn1)C(=O)N[C@@H](Cc1c[nH]c2ccccc12)C(N)=O` [Compound 16c, 6,6′,6″-(4,4′,4″-(Nitrilotris(methylene))tris(1H-1,2,3-triazole-4,1-diyl))tris(N-((S)-1-(((R)-1-(((S)-1-(((S)-1-amino-3-(1H-indol-3-yl)-1-oxopropan-2-yl)amino)-5-guanidino-1-oxopentan-2-yl)amino)-1-oxo-3-phenylpropan-2-yl)amino)-3-(1H-imidazol-4-yl)-1-oxopropan-2-yl)hexanamide)]: in assay [1], the Ki is 36 ± 4 nM and the “Relative Potency” value is reported as 61.
In assay [1], `N=C(N)NCCC[C@H](NC(=O)[C@@H](Cc1ccccc1)NC(=O)[C@H](Cc1c[nH]cn1)NC(=O)CCCCCn1cc(CN2CCN(Cc3cn(CCCCCC(=O)N[C@@H](Cc4c[nH]cn4)C(=O)N[C@H](Cc4ccccc4)C(=O)N[C@@H](CCCNC(=N)N)C(=O)N[C@@H](Cc4c[nH]c5ccccc45)C(N)=O)nn3)CCN(Cc3cn(CCCCCC(=O)N[C@@H](Cc4c[nH]cn4)C(=O)N[C@H](Cc4ccccc4)C(=O)N[C@@H](CCCNC(=N)N)C(=O)N[C@@H](Cc4c[nH]c5ccccc45)C(N)=O)nn3)CC2)nn1)C(=O)N[C@@H](Cc1c[nH]c2ccccc12)C(N)=O` [Compound 18, 6,6′,6″-(4,4′,4″-((1,4,7-Triazonane-1,4,7-triyl)tris(methylene))tris(1H-1,2,3-triazole-4,1-diyl))tris(N-((S)-1-(((R)-1-(((S)-1-(((S)-1-amino-3-(1H-indol-3-yl)-1-oxopropan-2-yl)amino)-5-guanidino-1-oxopentan-2-yl)amino)-1-oxo-3-phenylpropan-2-yl)amino)-3-(1H-imidazol-4-yl)-1-oxopropan-2-yl)hexanamide)] yielded a Ki of 25 ± 4 nM.
In the case of `CCCC[C@H](NC(=O)[C@H](CO)NC(=O)COCC(=O)NCCCOCCOCCOCCCNC(=O)CN(CCN(CCN(CC(=O)O)CC(=O)O)CC(=O)O)CC(=O)O)C(=O)N[C@@H](CCC(=O)O)C(=O)N[C@@H](Cc1c[nH]cn1)C(=O)N[C@H](Cc1ccccc1)C(=O)N[C@@H](CCCNC(=N)N)C(=O)N[C@@H](Cc1c[nH]c2ccccc12)C(N)=O` [Compound 19, Eu-DTPA-PEGO-MSH(7)-NH2] (X1-S[Nle]EH[dF]RW-NH2), the Kd in assay [2] is 27 ± 4 nM.
